Reference: patent publication US10487093B2, “Heterocyclic compounds, in particular 2-oxo-4,4,5,5,6,6,7,7-octahydrobenzoxazole derivatives, and their use as antibacterial compounds” (priority 2016, dated 2019)
≈ marks a conversion by molar mass, not a printed value.

What was measured:
[1] = test system: Enterobacter cloacae NCTC 13406; experiment: MIC, broth microdilution (CLSI) versus planktonic bacteria; type: cell-based; details: NCTC13406; Enterobacter cloacae NCTC 13406; 16-20 h; mode of three independent experiments; read-out: MIC, Ecl NCTC 13406
[2] = test system: Pseudomonas aeruginosa ATCC 27853; experiment: as above; type: cell-based; details: ATCC27853; Pseudomonas aeruginosa ATCC 27853; 16-20 h; mode of three independent experiments; read-out: MIC, Pa ATCC 27853
E. coli MG1655 S83L = type: cell-based, Escherichia coli; details: compared to the isogenic parent strain E. coli MG1655; S83L mutation on DNA gyrase subunit GyrA
[3] = test system: Streptococcus pneumoniae ATCC 49619; experiment: MIC, broth microdilution (CLSI) versus planktonic bacteria; type: cell-based; details: ATCC49619; Streptococcus pneumoniae ATCC 49619; 16-20 h; mode of three independent experiments; read-out: MIC, Sp ATCC 49619
E. coli MG1655 = experiment: as above; type: cell-based, Escherichia coli; details: Escherichia coli, MG1655, read-out: MIC, Ec MG1655 WT
[4] = test system: Escherichia coli ATCC 25922; experiment: as above; type: cell-based; details: ATCC25922; Escherichia coli ATCC 25922; 16-20 h; mode of three independent experiments; read-out: MIC, Ec ATCC 25922
E. coli NCTC 13476 = experiment: as above; type: cell-based; details: NCTC13476; Escherichia coli NCTC 13476; 16-20 h; mode of three independent experiments; read-out: MIC, Ec NCTC 13476
E. coli ATCC BAA-2452 = experiment: as above; type: cell-based; details: Escherichia coli ATCC BAA-2452; 16-20 h; mode of three independent experiments; read-out: MIC, Ec ATCC BAA 2452
E. coli MG1655 D87G = type: cell-based, Escherichia coli; details: compared to the isogenic parent strain E. coli MG1655; D87G mutation on DNA gyrase subunit GyrA
[5] = test system: human hepatic cell line (HepG2 ATCC HB-8065); experiment: Human cell viability assay (CellTiter-Glo); details: Homo sapiens, HepG2, 24 h, read-out: IC50 (μg/mL) HepG2
[6] = test system: Staphylococcus aureus ATCC 29213; experiment: MIC, broth microdilution (CLSI) versus planktonic bacteria; type: cell-based; details: ATCC29213; Staphylococcus aureus ATCC 29213; 16-20 h; mode of three independent experiments; read-out: MIC, Sa ATCC 29213
[7] = test system: Acinetobacter baumannii NCTC 13420; experiment: as above; type: cell-based; details: NCTC13420; Acinetobacter baumannii NCTC 13420; 16-20 h; mode of three independent experiments; read-out: MIC, Ab NCTC 13420
[8] = test system: Haemophilus influenzae ATCC 49247; experiment: as above; type: cell-based; details: ATCC49247; Haemophilus influenzae ATCC 49247; 16-20 h; mode of three independent experiments; read-out: MIC, Hi ATCC 49247
[9] = test system: Acinetobacter baumannii ATCC 19606; experiment: as above; type: cell-based; details: ATCC19606; Acinetobacter baumannii ATCC 19606; 16-20 h; mode of three independent experiments; read-out: MIC, Ab ATCC 19606

SMILES: COc1ccc2ccc(=O)n(CCN[C@H]3CC[C@H]4[C@H](C3)OC(=O)N4c3ncc4c(n3)NC(=O)CO4)c2n1 [Compound 67, 1-(2-{[(3aS,6S,7aS)-2-oxo-3-{7-oxo-6H,7H,8H-pyrimido[5,4-b][1,4]oxazin-2-yl}-octahydro-1,3-benzoxazol-6-yl]amino}ethyl)-7-methoxy-1,2-dihydro-1,8-naphthyridin-2-one]
- MIC [1]: 1 to 10 µg/mL (≈ 1.97 to 19.7 µM)
- MIC [2]: 1 to 10 µg/mL (≈ 1.97 to 19.7 µM)
- Fold increase in MIC, E. coli MG1655 S83L (E. coli MG1655 S83L): 1 fold
- MIC [3]: < 1 µg/mL
- MIC (E. coli MG1655): < 1 µg/mL
- MIC [4]: < 1 µg/mL
- MIC (E. coli NCTC 13476): 1 to 10 µg/mL (≈ 1.97 to 19.7 µM)
- MIC (E. coli ATCC BAA-2452): 1 to 10 µg/mL (≈ 1.97 to 19.7 µM)
- Fold increase in MIC, E. coli MG1655 D87G (E. coli MG1655 D87G): 1 fold
- IC50 [5]: > 100 µg/mL
- MIC [6]: < 1 µg/mL
- MIC [7]: < 1 µg/mL
- MIC [8]: < 1 µg/mL
- MIC [9]: 1 to 10 µg/mL (≈ 1.97 to 19.7 µM)

SMILES: N#Cc1ccc2ncc(=O)n(CCN[C@@H]3CC[C@@H]4[C@@H](C3)OC(=O)N4c3ccc4c(n3)NC(=O)CO4)c2c1 [Compound 68, 4-(2-{[(3aR,6R,7aR)-2-oxo-3-{3-oxo-2H,3H,4H-pyrido[3,2-b][1,4]oxazin-6-yl}-octahydro-1,3-benzoxazol-6-yl]amino}ethyl)-3-oxo-3,4-dihydroquinoxaline-6-carbonitrile]
- MIC [1]: < 1 µg/mL
- MIC [2]: 1 to 10 µg/mL (≈ 1.99 to 19.9 µM)
- Fold increase in MIC, E. coli MG1655 S83L (E. coli MG1655 S83L): 1 fold
- MIC [3]: < 1 µg/mL
- MIC (E. coli MG1655): < 1 µg/mL
- MIC [4]: < 1 µg/mL
- MIC (E. coli NCTC 13476): < 1 µg/mL
- MIC (E. coli ATCC BAA-2452): < 1 µg/mL
- Fold increase in MIC, E. coli MG1655 D87G (E. coli MG1655 D87G): 1 fold
- IC50 [5]: 10 to 100 µg/mL (≈ 19.9 to 199 µM)
- MIC [6]: < 1 µg/mL
- MIC [7]: < 1 µg/mL
- MIC [8]: < 1 µg/mL
- MIC [9]: < 1 µg/mL

SMILES: COc1cnc2ccc(=O)n(CCN[C@@H]3CC[C@@H]4[C@@H](C3)OC(=O)N4c3ccc4c(n3)NC(=O)CO4)c2c1 [Compound 69, 1-(2-{[(3aR,6R,7aR)-2-oxo-3-{3-oxo-2H,3H,4H-pyrido[3,2-b][1,4]oxazin-6-yl}-octahydro-1,3-benzoxazol-6-yl]amino}ethyl)-7-methoxy-1,2-dihydro-1,5-naphthyridin-2-one]
- MIC [1]: < 1 µg/mL
- MIC [2]: 1 to 10 µg/mL (≈ 1.97 to 19.7 µM)
- Fold increase in MIC, E. coli MG1655 S83L (E. coli MG1655 S83L): 1 fold
- MIC [3]: < 1 µg/mL
- MIC (E. coli MG1655): < 1 µg/mL
- MIC [4]: < 1 µg/mL
- MIC (E. coli NCTC 13476): < 1 µg/mL
- MIC (E. coli ATCC BAA-2452): < 1 µg/mL
- Fold increase in MIC, E. coli MG1655 D87G (E. coli MG1655 D87G): 1 fold
- IC50 [5]: > 100 µg/mL
- MIC [6]: < 1 µg/mL
- MIC [7]: < 1 µg/mL
- MIC [8]: < 1 µg/mL
- MIC [9]: < 1 µg/mL

SMILES: COc1cnnc(-c2cccc(CN[C@@H]3CC[C@@H]4[C@@H](C3)OC(=O)N4c3ccc4c(n3)NC(=O)CO4)c2O)c1 [Compound 72, (3aR,6R,7aR)-6-({[2-hydroxy-3-(5-methoxypyridazin-3-yl)phenyl]methyl}amino)-3-{3-oxo-2H,3H,4H-pyrido[3,2-b][1,4]oxazin-6-yl}-octahydro-1,3-benzoxazol-2-one]
- MIC [1]: 1 to 10 µg/mL (≈ 1.93 to 19.3 µM)
- MIC [2]: 1 to 10 µg/mL (≈ 1.93 to 19.3 µM)
- Fold increase in MIC, E. coli MG1655 S83L (E. coli MG1655 S83L): 0.5 fold
- MIC [3]: 1 to 10 µg/mL (≈ 1.93 to 19.3 µM)
- MIC (E. coli MG1655): < 1 µg/mL
- MIC [4]: < 1 µg/mL
- MIC (E. coli NCTC 13476): 1 to 10 µg/mL (≈ 1.93 to 19.3 µM)
- MIC (E. coli ATCC BAA-2452): < 1 µg/mL
- Fold increase in MIC, E. coli MG1655 D87G (E. coli MG1655 D87G): 0.5 fold
- IC50 [5]: 10 to 100 µg/mL (≈ 19.3 to 193 µM)
- MIC [6]: < 1 µg/mL
- MIC [7]: < 1 µg/mL
- MIC [8]: < 1 µg/mL
- MIC [9]: < 1 µg/mL

SMILES: N#Cc1ccc2ccc(=O)n(CCCN[C@@H]3CC[C@@H]4[C@@H](C3)OC(=O)N4c3ccc4c(n3)NC(=O)CO4)c2c1 [Compound 74, 1-(3-{[(3aR,6R,7aR)-2-oxo-3-{3-oxo-2H,3H,4H-pyrido[3,2-b][1,4]oxazin-6-yl}-octahydro-1,3-benzoxazol-6-yl]amino}propyl)-2-oxo-1,2-dihydroquinoline-7-carbonitrile]
- MIC [1]: < 1 µg/mL
- MIC [2]: < 1 µg/mL
- Fold increase in MIC, E. coli MG1655 S83L (E. coli MG1655 S83L): 1 fold
- MIC [3]: < 1 µg/mL
- MIC (E. coli MG1655): < 1 µg/mL
- MIC [4]: < 1 µg/mL
- MIC (E. coli NCTC 13476): < 1 µg/mL
- MIC (E. coli ATCC BAA-2452): < 1 µg/mL
- Fold increase in MIC, E. coli MG1655 D87G (E. coli MG1655 D87G): 1 fold
- IC50 [5]: 10 to 100 µg/mL (≈ 19.4 to 194 µM)
- MIC [6]: < 1 µg/mL
- MIC [7]: < 1 µg/mL
- MIC [8]: < 1 µg/mL
- MIC [9]: < 1 µg/mL
